Converted amounts (≈) assume the structure as drawn.
Tested on: S. pneumoniae ATCC 49619
Test: Minimal inhibitory concentration (MIC) by broth microdilution (CLSI M7-A7)
Type: cell-based, Streptococcus pneumoniae
Details: Streptococcus pneumoniae, ATCC49619; cation-adjusted Mueller Hinton Broth supplemented with 3% (v/v) lysed horse blood; microdilution method
How it was run: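 Broth microdilution per CLSI M7-A7 in cation-adjusted Mueller-Hinton broth with 3% (v/v) lysed horse blood for S. pneumoniae. MIC in mg/l.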

Row | Structure (SMILES) | MIC
1 | CCNC(=O)Nc1cc2c(-c3ccncc3)ccc(CNC(=O)OCCCN3CCCC3=O)c2cn1.Cl [Example 85, [3-(3-ethyl-ureido)-5-pyridin-4-yl-isoquinolin-8-ylmethyl]-carbamic acid 3-(2-oxo-pyrrolidin-1-yl)-propyl ester hydrochloride] | 1 µg/mL
2 | CCNC(=O)Nc1cc2c(-c3ccncc3)ccc(CNC(=O)OC[C@@H]3CCC(=O)N3)c2cn1.Cl [Example 87, (S)-[3-(3-ethyl-ureido)-5-pyridin-4-yl-isoquinolin-8-ylmethyl]-carbamic acid 5-oxo-pyrrolidin-2-ylmethyl ester hydrochloride] | 0.25 µg/mL
3 | CCNC(=O)Nc1cc2c(-c3ccncc3)ccc(CNC(=O)OCc3cncn3C)c2cn1.Cl [Example 88, [3-(3-ethyl-ureido)-5-pyridin-4-yl-isoquinolin-8-ylmethyl]-carbamic acid 3-methyl-3H-imidazol-4-ylmethyl ester hydrochloride] | 2 µg/mL
4 | CCNC(=O)Nc1cc2c(-c3ccncc3)ccc(CNC(=O)OCCCN(C)C)c2cn1.Cl [Example 89, [3-(3-ethyl-ureido)-5-pyridin-4-yl-isoquinolin-8-ylmethyl]-carbamic acid 3-dimethylamino-propyl ester hydrochloride] | 8 µg/mL
5 | CCNC(=O)Nc1cc2c(-c3ccncc3)ccc(CNC(=O)CCCO)c2cn1 [Example 90, N-[3-(3-ethyl-ureido)-5-pyridin-4-yl-isoquinolin-8-ylmethyl]-4-hydroxy-butyramide] | 2 µg/mL (≈ 4.91 µM)
6 | CCNC(=O)Nc1cc2c(-c3ccncc3)ccc(CNC(=O)OCCN3CCOCC3)c2cn1.Cl [Example 91, [3-(3-ethyl-ureido)-5-pyridin-4-yl-isoquinolin-8-ylmethyl]-carbamic acid 2-morpholin-4-yl-ethyl ester hydrochloride] | 1 µg/mL
7 | CCNC(=O)Nc1cc2c(-c3ccncc3)ccc(CNC(=O)OCCCN3CCCCC3)c2cn1.Cl [Example 92, [3-(3-ethyl-ureido)-5-pyridin-4-yl-isoquinolin-8-ylmethyl]-carbamic acid 3-piperidin-1-yl-propyl ester hydrochloride] | 4 µg/mL
8 | CCNC(=O)Nc1cc2c(-c3ccncc3)ccc(CNC(=O)OCCN3CCNC3=O)c2cn1.Cl [Example 93, [3-(3-ethyl-ureido)-5-pyridin-4-yl-isoquinolin-8-ylmethyl]-carbamic acid 2-(2-oxo-imidazolidin-1-yl)-ethyl ester hydrochloride] | 8 µg/mL
9 | CCNC(=O)Nc1cc2c(-c3ccncc3)ccc(CNC(=O)OCCCOC)c2cn1.Cl [Example 94, [3-(3-ethyl-ureido)-5-pyridin-4-yl-isoquinolin-8-ylmethyl]-carbamic acid 3-methoxy-propyl ester hydrochloride] | 0.5 µg/mL
10 | CCNC(=O)Nc1cc2c(-c3ccncc3)ccc(CNC(=O)CCCOC)c2cn1 [Example 95, N-[3-(3-ethyl-ureido)-5-pyridin-4-yl-isoquinolin-8-ylmethyl]-4-methoxy-butyramide] | 0.5 µg/mL (≈ 1.19 µM)
11 | CCNC(=O)Nc1cc2c(-c3ccncc3)ccc(CNC(=O)OCC(N)=O)c2cn1.Cl [Example 96, [3-(3-ethyl-ureido)-5-pyridin-4-yl-isoquinolin-8-ylmethyl]-carbamic acid carbamoylmethyl ester hydrochloride] | 2 µg/mL
12 | CCNC(=O)Nc1cc2c(-c3ccncc3)ccc(CNC(=O)OCCN3C(=O)CCC3=O)c2cn1.Cl [Example 97, [3-(3-ethyl-ureido)-5-pyridin-4-yl-isoquinolin-8-ylmethyl]-carbamic acid 2-(2,5-dioxo-pyrrolidin-1-yl)-ethyl ester hydrochloride] | 2 µg/mL
13 | CCNC(=O)Nc1cc2c(-c3ccncc3)ccc(CNC(=O)OCCN3CCCCC3)c2cn1.Cl [Example 98, [3-(3-ethyl-ureido)-5-pyridin-4-yl-isoquinolin-8-ylmethyl]-carbamic acid 2-piperidin-1-yl-ethyl ester hydrochloride] | 4 µg/mL
14 | CCNC(=O)Nc1cc2c(-c3ccncc3)ccc(CNC(=O)OCC(C)C)c2cn1.Cl [Example 99, [3-(3-ethyl-ureido)-5-pyridin-4-yl-isoquinolin-8-ylmethyl]-carbamic acid isobutyl ester hydrochloride] | 0.5 µg/mL
15 | CCNC(=O)Nc1cc2c(-c3ccncc3)ccc(CNC(=O)OCC[C@H]3CCCNC3)c2cn1.Cl [Example 100, [3-(3-ethyl-ureido)-5-pyridin-4-yl-isoquinolin-8-ylmethyl]-carbamic acid (R)-2-piperidin-3-yl-ethyl ester hydrochloride] | 8 µg/mL
16 | CCNC(=O)Nc1cc2c(-c3ccncc3)ccc(CNC(=O)OC[C@H]3CC[C@H](CN)CC3)c2cn1.Cl [Example 101, trans-[3-(3-ethyl-ureido)-5-pyridin-4-yl-isoquinolin-8-ylmethyl]-carbamic acid 4-(aminomethyl)-(cyclohexylmethyl) ester hydrochloride] | 2 µg/mL
17 | CCNC(=O)Nc1cc2c(-c3ccncc3)ccc(CNC(=O)OCC[C@@H](O)CO)c2cn1.Cl [Example 102, (R)-[3-(3-ethyl-ureido)-5-pyridin-4-yl-isoquinolin-8-ylmethyl]-carbamic acid 3,4-dihydroxy-butyl ester hydrochloride] | 1 µg/mL
18 | CCNC(=O)Nc1cc2c(-c3ccncc3)ccc(CNC(=O)OCCC(=O)O)c2cn1 [Example 104, 3-((((3-(3-ethylureido)-5-(pyridin-4-yl)isoquinolin-8-yl)methyl)carbamoyl)oxy)propanoic acid] | 8 µg/mL (≈ 18.3 µM)
19 | CCNC(=O)Nc1cc2c(-c3ccncc3)ccc(CNC(=O)OCCC(=O)OC)c2cn1.Cl [Example 105, methyl 3-((((3-(3-ethylureido)-5-(pyridin-4-yl)isoquinolin-8-yl)methyl)carbamoyl)oxy)propanoate hydrochloride] | 4 µg/mL
20 | CCNC(=O)Nc1cc2c(-c3ccncc3)ccc(CNC(=O)OCC#CCO)c2cn1 [Example 106, [3-(3-ethyl-ureido)-5-pyridin-4-yl-isoquinolin-8-ylmethyl]-carbamic acid 4-hydroxy-but-2-ynyl ester] | 0.25 µg/mL (≈ 0.577 µM)
21 | CCNC(=O)Nc1cc2c(-c3ccncc3)ccc(CNC(=O)OCCO)c2cn1 [Example 107, [3-(3-ethyl-ureido)-5-pyridin-4-yl-isoquinolin-8-ylmethyl]-carbamic acid 2-hydroxy-ethyl ester] | 1 µg/mL (≈ 2.44 µM)

The remaining lines, values ahead:

Row | MIC | Structure (SMILES)
22 | 2 µg/mL (≈ 4.62 µM) | CCNC(=O)Nc1cc2c(-c3ccncc3)ccc(CNC(=O)OCC#CCN)c2cn1 [Example 109, [3-(3-ethyl-ureido)-5-pyridin-4-yl-isoquinolin-8-ylmethyl]-carbamic acid 4-amino-but-2-ynyl ester]
23 | 2 µg/mL (≈ 4.06 µM) | CCNC(=O)Nc1cc2c(-c3ccncc3)ccc(CNC(=O)OCCCN3CCOCC3)c2cn1 [Example 110, [3-(3-ethyl-ureido)-5-pyridin-4-yl-isoquinolin-8-ylmethyl]-carbamic acid 3-morpholin-4-yl-propyl ester]
24 | 0.5 µg/mL (≈ 1.31 µM) | CCNC(=O)Nc1cc2c(Cl)ccc(CNC(=O)OCCOC)c2cn1 [Example 111, [5-chloro-3-(3-ethyl-ureido)-isoquinolin-8-ylmethyl]-carbamic acid 2-methoxy-ethyl ester]
25 | 0.5 µg/mL (≈ 1.39 µM) | C#CCOC(=O)NCc1ccc(Cl)c2cc(NC(=O)NCC)ncc12 [Example 112, [5-chloro-3-(3-ethyl-ureido)-isoquinolin-8-ylmethyl]-carbamic acid prop-2-ynyl ester]
26 | 1 µg/mL (≈ 2.64 µM) | CCNC(=O)Nc1cc2c(Cl)ccc(CNC(=O)OC(C)(C)C)c2cn1 [Example 113, [5-chloro-3-(3-ethyl-ureido)-isoquinolin-8-ylmethyl]-carbamic acid tert-butyl ester]
27 | 0.5 µg/mL (≈ 1.18 µM) | CCNC(=O)Nc1cc2c(-c3ccncc3)ccc(CNC(=O)OCCOC)c2cn1 [Example 114, [3-(3-ethyl-ureido)-5-pyridin-4-yl-isoquinolin-8-ylmethyl]-carbamic acid 2-methoxy-ethyl ester]
28 | 2 µg/mL (≈ 4.56 µM) | CCNC(=O)Nc1cc2c(-c3ccnc(N)c3)ccc(CNC(=O)OCCOC)c2cn1 [Example 115, [5-(2-amino-pyridin-4-yl)-3-(3-ethyl-ureido)-isoquinolin-8-ylmethyl]-carbamic acid 2-methoxy-ethyl ester]
29 | 1 µg/mL (≈ 2.21 µM) | CCNC(=O)Nc1cc2c(-c3cc(C)nc(C)c3)ccc(CNC(=O)OCCOC)c2cn1 [Example 116, [5-(2,6-dimethyl-pyridin-4-yl)-3-(3-ethyl-ureido)-isoquinolin-8-ylmethyl]-carbamic acid 2-methoxy-ethyl ester]
30 | 1 µg/mL (≈ 2.21 µM) | CCNC(=O)Nc1cc2c(-c3ccnc(OC)c3)ccc(CNC(=O)OCCOC)c2cn1 [Example 117, [3-(3-ethyl-ureido)-5-(2-methoxy-pyridin-4-yl)-isoquinolin-8-ylmethyl]-carbamic acid 2-methoxy-ethyl ester]
31 | 0.5 µg/mL (≈ 1.13 µM) | CCNC(=O)Nc1cc2c(-c3ccnc(F)c3)ccc(CNC(=O)OCCOC)c2cn1 [Example 118, [3-(3-ethyl-ureido)-5-(2-fluoro-pyridin-4-yl)-isoquinolin-8-ylmethyl]-carbamic acid 2-methoxy-ethyl ester]
32 | 0.5 µg/mL (≈ 1.14 µM) | CCNC(=O)Nc1cc2c(-c3ccnc(C)c3)ccc(CNC(=O)OCCOC)c2cn1 [Example 119, [3-(3-ethyl-ureido)-5-(2-methyl-pyridin-4-yl)-isoquinolin-8-ylmethyl]-carbamic acid 2-methoxy-ethyl ester]
33 | 1 µg/mL (≈ 2.23 µM) | CCNC(=O)Nc1cc2c(-c3ccnc(C#N)c3)ccc(CNC(=O)OCCOC)c2cn1 [Example 120, [5-(2-cyano-pyridin-4-yl)-3-(3-ethyl-ureido)-isoquinolin-8-ylmethyl]-carbamic acid 2-methoxy-ethyl ester]
34 | 1 µg/mL (≈ 2.29 µM) | CCNC(=O)Nc1cc2c(-c3ccncc3C)ccc(CNC(=O)OCCOC)c2cn1 [Example 121, [3-(3-ethyl-ureido)-5-(3-methyl-pyridin-4-yl)-isoquinolin-8-ylmethyl]-carbamic acid 2-methoxy-ethyl ester]
35 | 4 µg/mL (≈ 8.82 µM) | CCNC(=O)Nc1cc2c(-c3ccnc(CO)c3)ccc(CNC(=O)OCCOC)c2cn1 [Example 122, [3-(3-ethyl-ureido)-5-(2-hydroxymethyl-pyridin-4-yl)-isoquinolin-8-ylmethyl]-carbamic acid 2-methoxy-ethyl ester]

Reference: patent US8889676B2, “3-ureidoisoquinolin-8-yl derivatives” (Actelion Pharmaceuticals Ltd., priority 2011, dated 2014)
